Data reported in paper PMC4645461 (Peptides, 2015).
“Also recorded” adds a separate entry of the source.

Experiments:
[1] = cited from earlier work
rat GLP-1 receptor = molecular target: T1, rat GLP-1 receptor (Rattus norvegicus, UniProt P32301); assay: cAMP accumulation, CHL cells over-expressing the rat GLP-1 receptor; format: cell-based; settings: analogue average EC50/average GLP-1 EC50; below 1 enhanced efficacy, above 1 decreased efficacy vs native peptide
T1 construct: host or cells: CHL (Chinese hamster lung)
T1 sequence (P32301 22-463): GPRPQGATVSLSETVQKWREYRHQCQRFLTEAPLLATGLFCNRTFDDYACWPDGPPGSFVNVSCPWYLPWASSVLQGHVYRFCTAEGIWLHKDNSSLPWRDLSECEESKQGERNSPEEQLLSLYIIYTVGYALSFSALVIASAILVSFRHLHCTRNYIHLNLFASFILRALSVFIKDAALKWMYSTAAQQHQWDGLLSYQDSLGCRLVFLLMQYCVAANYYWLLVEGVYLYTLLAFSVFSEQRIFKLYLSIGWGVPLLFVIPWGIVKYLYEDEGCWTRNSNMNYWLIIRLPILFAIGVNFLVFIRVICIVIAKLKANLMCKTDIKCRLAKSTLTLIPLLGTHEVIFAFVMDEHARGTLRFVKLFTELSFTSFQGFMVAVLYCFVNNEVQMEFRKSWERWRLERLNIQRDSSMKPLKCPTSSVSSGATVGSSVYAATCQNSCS
Protocol: (§1) For cAMP studies, cells were seeded at a density of 150000 cells/ml in a 48 well plate (Nunc, VWR International Inc., Chicago, USA) and incubated for 24 h. Cells were serum starved for 1 h and then incubated for 30 mins at room temperature with a range of peptide concentrations diluted in serum free DMEM (Sigma–Aldrich, Dorset, UK) in the presence of 1 mM IBMX (3-isobutyl-1-methylxanthine, Sigma–Aldrich). […] EC50’s were calculated using Prism v5 (GraphPad Software Inc., San Diego, CA, USA). Concentrations were applied in duplicate or triplicate per experiment and each experiment repeated a minimum of 3 times.
(§2) All food and bodyweight data are presented as mean ± SEM. […] Differences in 0–7 days cumulative food intake and bodyweight data were analysed using one way ANOVA and post hoc tests with Dunnett’s or Bonferroni corrections for multiple comparisons (Prism v5, GraphPad Software Inc. San Diego, CA, USA). cAMP EC50’s were calculated using a sigmoidal dose response curve and non-linear regression (Prism v5). […] In all cases P < 0.05 was considered statistically significant.

[2] = rodents and humans; ref [7],[19],[34],[36],[37]; cited from earlier work
rat glucagon receptor = molecular target: T2, rat glucagon receptor (Rattus norvegicus, UniProt P30082); assay: cAMP accumulation, CHO-K1 cells over-expressing the rat glucagon receptor; format: cell-based; settings: rat glucagon receptor vs rat GLP-1 receptor
T2 construct: host or cells: CHO-K1
Protocol: as §1, §2

human GLP-1 receptor = settings: compared to native peptides; ref [22],[23],[32]; cited from earlier work
[3] = set-up: method as in earlier work; settings: native oxyntomodulin and longer lasting dual analogues; rodents ref [6],[9],[10],[23],[26],[31]; humans ref [36],[37]; cited from earlier work
Text: Additionally, methods of peptide administration differ: some studies infused peptides while others administer ...

human glucagon receptor = settings: compared to native peptides; ref [22],[23],[32]; cited from earlier work

T2 sequence (P30082 27-485): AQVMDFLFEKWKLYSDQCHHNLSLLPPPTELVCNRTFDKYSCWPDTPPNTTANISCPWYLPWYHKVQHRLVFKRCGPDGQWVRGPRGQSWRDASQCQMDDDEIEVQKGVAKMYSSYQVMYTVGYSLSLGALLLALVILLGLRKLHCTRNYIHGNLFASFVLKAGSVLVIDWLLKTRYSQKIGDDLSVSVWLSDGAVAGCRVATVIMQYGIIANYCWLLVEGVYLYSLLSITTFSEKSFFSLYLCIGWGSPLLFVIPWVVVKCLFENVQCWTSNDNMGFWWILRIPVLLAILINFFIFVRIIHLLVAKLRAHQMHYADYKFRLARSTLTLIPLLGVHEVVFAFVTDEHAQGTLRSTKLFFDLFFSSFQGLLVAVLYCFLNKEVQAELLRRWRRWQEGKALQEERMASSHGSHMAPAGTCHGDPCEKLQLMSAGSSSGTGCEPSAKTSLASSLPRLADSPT

For Exendin-4, the “weight loss in standard chow fed animals” value ([1]; ref [33],[38]) is given as “weight loss”.
For GLP-1(7-36NH2), the “EC50 ratio to native peptide, Rat GLP-1r” value (rat GLP-1 receptor) was 1.0 arbitrary units.
For oxyntomodulin [OXM], the “energy expenditure” value [2] is listed as “increase energy expenditure”, the “preference between rat glucagon and GLP-1 receptors” value (rat glucagon receptor) is listed as “greater efficacy at the glucagon receptor than the GLP1 receptor; also recorded: favoured glucagon receptor activity” and the “activation of human GLP-1 receptor” value (human GLP-1 receptor) is listed as “reduced efficacy compared to the native peptides”. The “weight loss” value ([1]; peripheral administration, rodents ref [1],[5],[6],[25], humans ref [4],[36],[37]) was “causes weight loss”, the “food intake after repeated peripheral administration” value [3] was “reduction in food intake” and the “activation of human glucagon receptor” value (human glucagon receptor) was “reduced efficacy compared to the native peptides”.
